Consider twelve compounds from patent US9650390B2, “Water-soluble taxane derivatives and uses thereof” (priority 2014, dated 2017).

Series [1] is described as follows: In vitro dissociation in blood plasma of rabbit. The format is in vitro ADME, New Zealand white rabbits. Conditions: fresh New Zealand white rabbit plasma, 37° C. The protocol: The obtained water soluble taxane derivatives of the following formulae were formulated as 0.2 mg/ml aqueous solutions. […]
Series [2] concerns human prostate cancer PC-3. The experiment in a line: Inhibitory activity of docetaxel derivatives on subcutaneously xenografted tumor PC-3 in nude mice. In kind it is in vivo. To be noted: 33.6 mg/kg, D0 IV; for T/C (%) D20 / Tumor inhibitory percent (%) D20 / Tumor volume (mm^3) (D0) / Tumor volume (mm^3) (D20): PC-3 xenograft in nude mice; for Tumor inhibitory percent (%) D20: P = 0.000 vs control; for Tumor volume (mm^3) (D0): baseline at grouping (D0); for Weight change (%) D6: nude mice.
Description: Purpose: to evaluate and compare the inhibitory activity of the water soluble docetaxel derivatives and docetaxel on subcutaneously xenografted tumor of human prostate cancer PC-3 in nude mice
Human prostate cancer PC-3 cells were subcutaneously inoculated into nude mice. After the tumor volume reached 100-150 mm^3, the animals were randomly divided into several groups, and administered with the water soluble docetaxel derivatives of the following formula and docetaxel, respectively once on the same day (D0). The tumor volume was measured 2-3 times per week, the animals were weighed and the data were recorded until day 20 (D20) after grouping.
(§1) The tumor volume (V) was calculated according to the equation: V=½×a×b^2, wherein a and b represent the length and the width, respectively.
T/C (%)=(T−T0)/(C−C0)×100, wherein T and C represent the tumor volume at the end of the experiment; and T0 and C0 represent the tumor volume at the beginning of the experiment.

The nature of series [3]: In vitro dissociation in blood plasma of rat. In kind it is in vitro ADME, SD rats. Conditions: fresh SD rat plasma, 37° C.; for Sampling time/Dissociation percent (%) 2 min: 2 min incubation; for Sampling time/Dissociation percent (%) 5 min: 5 min incubation; for Sampling time/Dissociation percent (%) 10 min: 10 min incubation. On the procedure: The obtained water soluble taxane derivatives of the following formulae were formulated as 0.2 mg/ml aqueous solutions. […] After 2 min, 5 min and 10 min of incubation, 0.2 ml of solutions were respectively taken from each of the samples, and added to acetonitrile (0.4 ml) cooled to −20° C. for precipitation of protein.

Series [4] deals with human ovarian cancer SK-OV-3. To be noted: 24 mg/kg, D0-4 IV; for Body weight change (%) D4: nude mice; for Tumor volume (mm^3) (D0): baseline at grouping (D0).
Description: Purpose: to evaluate and compare the inhibitory activity of the water soluble paclitaxel derivatives, paclitaxel and Abraxane® on subcutaneously xenografted tumor of human ovarian cancer SK-OV-3 in nude mice.
Human ovarian cancer SK-OV-3 cells were subcutaneously inoculated to nude mice. After the tumor volume reached 100-150 mm^3, the animals were randomly divided into groups (D0), and administered with the water soluble paclitaxel derivatives of the following formula, paclitaxel, and Abraxane®, respectively once per day for 5 days. The tumor volume was measured 2-3 times per week, the animals were weighed and the data were recorded until day 22 (D22) after grouping.
as §1
T/C (%)=(T−T0)/(C−C0)×100, wherein T and C represent the tumor volume at the end of the experiment, and T0 and C0 represent the tumor volume at the beginning of the experiment.
Where [5] appears, read: D22, SK-OV-3 xenograft in nude mice.

SMILES strings stand for the structures.

For the compound `CC(=O)O[C@@]12CO[C@@H]1C[C@H](O)[C@@]1(C)C(=O)[C@H](O)C3=C(C)[C@@H](OC(=O)[C@H](OC(=O)[C@H](F)CCN(C)C)[C@@H](NC(=O)OC(C)(C)C)c4ccccc4)C[C@@](O)([C@@H](OC(=O)c4ccccc4)[C@H]21)C3(C)C.CS(=O)(=O)O` [Compound C4, 2′-O-[4-N,N-dimethylamino-2(R)-fluorobutyryl]docetaxel methanesulfonate], in series [1], the “Sampling time/Dissociation percent (%) 2 min” value is 81.6%, the “Sampling time/Dissociation percent (%) 5 min” value is listed as 94.8% and the “Sampling time/Dissociation percent (%) 10 min” value was determined as 100%. In series [2], the “T/C (%) D20” value is −77%, the “Tumor inhibitory percent (%) D20” value was determined as 177% and the “Tumor volume (mm^3) (D0)” value amounted to 113.7 ± 2.9 mm^3. Besides, in series [3], the “Sampling time/Dissociation percent (%) 2 min” value was found to be 59.2%, the “Sampling time/Dissociation percent (%) 5 min” value amounted to 93.4% and the “Sampling time/Dissociation percent (%) 10 min” value is 100%.
On to `CC(=O)O[C@@]12CO[C@@H]1C[C@H](O)[C@@]1(C)C(=O)[C@H](O)C3=C(C)[C@@H](OC(=O)[C@H](OC(=O)[C@@H](F)CCN(C)C)[C@@H](NC(=O)OC(C)(C)C)c4ccccc4)C[C@@](O)([C@@H](OC(=O)c4ccccc4)[C@H]21)C3(C)C.CS(=O)(=O)O` [Compound C5, 2′-O-[4-N,N-dimethylamino-2(S)-fluorobutyryl]docetaxel methanesulfonate], for which, in series [1], the “Sampling time/Dissociation percent (%) 2 min” value was 81.2%, the “Sampling time/Dissociation percent (%) 5 min” value was determined as 93.1% and the “Sampling time/Dissociation percent (%) 10 min” value is on record as 100%. Also, in series [2], the “T/C (%) D20” value is given as −76%, the “Tumor volume (mm^3) (D20)” value amounted to 26.8 ± 12.6 mm^3, the “Tumor inhibitory percent (%) D20” value is listed as 175% and the “Tumor volume (mm^3) (D0)” value is 113.4 ± 3.1 mm^3. Moreover, in series [3], the “Sampling time/Dissociation percent (%) 2 min” value stood at 58.9%, the “Sampling time/Dissociation percent (%) 5 min” value was determined as 93.3% and the “Sampling time/Dissociation percent (%) 10 min” value is on record as 100%.
Consider `CC(=O)O[C@@]12CO[C@@H]1C[C@H](O)[C@@]1(C)C(=O)[C@H](O)C3=C(C)[C@@H](OC(=O)[C@H](OC(=O)C(F)CCN(C)C)[C@@H](NC(=O)OC(C)(C)C)c4ccccc4)C[C@@](O)([C@@H](OC(=O)c4ccccc4)[C@H]21)C3(C)C.CS(=O)(=O)O` (stereo partly drawn) [Compound C6, 2′-O-[4-N,N-dimethylamino-2(R,S)-fluorobutyryl]docetaxel methanesulfonate], for which, in series [1], the “Sampling time/Dissociation percent (%) 2 min” value is 76.8%, the “Sampling time/Dissociation percent (%) 5 min” value is recorded as 97.8% and the “Sampling time/Dissociation percent (%) 10 min” value was 100%. Further, in series [2], the “Weight change (%) D6” value was −12.6%, the “T/C (%) D20” value is recorded as −76%, the “Tumor volume (mm^3) (D20)” value is reported as 27.0 ± 12.3 mm^3 and the “Tumor inhibitory percent (%) D20” value was determined as 175%. Further, the “Tumor volume (mm^3) (D0)” value in series [2] was 113.8 ± 3.0 mm^3. Also, in series [3], the “Sampling time/Dissociation percent (%) 2 min” value came to 59.1%, the “Sampling time/Dissociation percent (%) 5 min” value is 93.3% and the “Sampling time/Dissociation percent (%) 10 min” value is given as 100%.
On to `CCN(CC)CC[C@](C)(C(=O)O[C@@H](C(=O)O[C@H]1C[C@@]2(O)[C@@H](OC(=O)c3ccccc3)[C@@H]3[C@]4(OC(C)=O)CO[C@@H]4C[C@H](OC)[C@@]3(C)C(=O)[C@H](OC)C(=C1C)C2(C)C)[C@@H](NC(=O)OC(C)(C)C)c1ccccc1)C(F)(F)F.Cl` [Compound C11, 2′-O-[4-N,N-diethylamino-2-methyl-2(R)-2-trifluoromethylbutyryl]cabazitaxel hydrochloride], for which, in series [1], the “Sampling time/Dissociation percent (%) 2 min” value is recorded as 61.2%, the “Sampling time/Dissociation percent (%) 5 min” value is recorded as 84.5% and the “Sampling time/Dissociation percent (%) 10 min” value is listed as 96.3%. In addition, in series [3], the “Sampling time/Dissociation percent (%) 2 min” value came out at 51.2%, the “Sampling time/Dissociation percent (%) 5 min” value turned out to be 88.4% and the “Sampling time/Dissociation percent (%) 10 min” value stood at 95.9%.
Consider `CCN(C)CC[C@@H](F)C(=O)O[C@@H](C(=O)O[C@H]1C[C@@]2(O)[C@@H](OC(=O)c3ccccc3)[C@@H]3[C@]4(OC(C)=O)CO[C@@H]4C[C@H](O)[C@@]3(C)C(=O)[C@H](OC(C)=O)C(=C1C)C2(C)C)[C@@H](NC(=O)c1ccccc1)c1ccccc1.CS(=O)(=O)O` [Compound C18, 2′-O-[4-N-methyl-N-ethylamino-2(R)-fluorobutyryl]paclitaxel methanesulfonate], for which the “Body weight change (%) D4” value in series [4] is reported as −7.0%. Moreover, in series [4] (setting [5]), the “T/C (%) D22” value was −53% and the “Tumor volume (mm^3) (D22)” value is recorded as 55.7 ± 10.6 mm^3. Besides, in series [4] (SK-OV-3 xenograft in nude mice), the “Tumor volume (mm^3) (D0)” value worked out at 133.6 ± 9.4 mm^3.
Take `CCN(CC)CC[C@H](F)C(=O)O[C@@H](C(=O)O[C@H]1C[C@@]2(O)[C@@H](OC(=O)c3ccccc3)[C@@H]3[C@]4(OC(C)=O)CO[C@@H]4C[C@H](O)[C@@]3(C)C(=O)[C@H](OC(C)=O)C(=C1C)C2(C)C)[C@@H](NC(=O)c1ccccc1)c1ccccc1.O=C(O)/C=C/C(=O)O` [Compound C19, 2′-O-[4-N,N-diethylamino-2(S)-fluorobutyryl]paclitaxel fumarate]: the “Body weight change (%) D4” value in series [4] is listed as −8.1%. For the same compound, in series [4] (setting [5]), the “T/C (%) D22” value is reported as −44% and the “Tumor volume (mm^3) (D22)” value amounted to 55.7 ± 10.1 mm^3. In addition, the “Tumor volume (mm^3) (D0)” value in series [4] (SK-OV-3 xenograft in nude mice) stood at 133.6 ± 9.4 mm^3.
On to `CC(=O)O[C@H]1C(=O)[C@@]2(C)[C@H]([C@H](OC(=O)c3ccccc3)[C@]3(O)C[C@H](OC(=O)[C@H](OC(=O)C(F)CCN(C)C(C)C)[C@@H](NC(=O)c4ccccc4)c4ccccc4)C(C)=C1C3(C)C)[C@]1(OC(C)=O)CO[C@@H]1C[C@@H]2O.Cl` (stereo partly drawn) [Compound C20, 2′-O-[4-N-methyl-N-isopropylamino-2(R,S)-fluorobutyryl]paclitaxel hydrochloride], for which the “Body weight change (%) D4” value in series [4] is −10.3%. In series [4] (setting [5]), the “T/C (%) D22” value is listed as −38% and the “Tumor volume (mm^3) (D22)” value came to 60.4 ± 12.3 mm^3. The “Tumor inhibitory percent (%) D22” value in series [4] (D22, SK-OV-3 xenograft in nude mice, P = 0.000 vs control) is reported as 98%. In series [4] (SK-OV-3 xenograft in nude mice), the “Tumor volume (mm^3) (D0)” value is 127.9 ± 11.4 mm^3.
In the case of `CCN(C)CCC(F)C(=O)OC(C(=O)OC1CC2(O)C(OC(=O)c3ccccc3)C3C4(OC(C)=O)COC4CC(O)C3(C)C(=O)C(O)C(=C1C)C2(C)C)C(NC(=O)OC(C)(C)C)c1ccccc1.CS(=O)(=O)O` [Compound C25, 2′-O-[4-N-methyl-N-ethylamino-2(R)-fluorobutyryl]docetaxel methanesulfonate], in series [2], the “Weight change (%) D6” value was −13.6%, the “T/C (%) D20” value is −62%, the “Tumor volume (mm^3) (D20)” value stood at 30.4 ± 11.1 mm^3 and the “Tumor inhibitory percent (%) D20” value is 143%. Also, the “Tumor volume (mm^3) (D0)” value in series [2] was 113.8 ± 3.0 mm^3.
Take `CCN(CC)CCC(F)C(=O)OC(C(=O)OC1CC2(O)C(OC(=O)c3ccccc3)C3C4(OC(C)=O)COC4CC(O)C3(C)C(=O)C(O)C(=C1C)C2(C)C)C(NC(=O)OC(C)(C)C)c1ccccc1.O=C(O)C=CC(=O)O` [Compound C26, 2′-O-[4-N,N-diethylamino-2(S)-fluorobutyryl]docetaxel maleate]: in series [2], the “Weight change (%) D6” value is listed as −14.1%, the “T/C (%) D20” value is reported as −52%, the “Tumor volume (mm^3) (D20)” value turned out to be 32.4 ± 13.5 mm^3 and the “Tumor inhibitory percent (%) D20” value amounted to 120%. The “Tumor volume (mm^3) (D0)” value in series [2] is given as 114.4 ± 2.8 mm^3.
Turning to `CC(=O)O[C@@]12CO[C@@H]1C[C@H](O)[C@@]1(C)C(=O)[C@H](O)C3=C(C)[C@@H](OC(=O)[C@H](OC(=O)[C@H](F)CCN(C)C(C)C)[C@@H](NC(=O)OC(C)(C)C)c4ccccc4)C[C@@](O)([C@@H](OC(=O)c4ccccc4)[C@H]21)C3(C)C.Cl` [Compound C27, 2′-O-[4-N-methyl-N-isopropylamino-2(R)-fluorobutyryl]docetaxel hydrochloride], in series [2], the “Weight change (%) D6” value is given as −14.4%, the “T/C (%) D20” value is reported as −44%, the “Tumor volume (mm^3) (D20)” value is 35.3 ± 14.7 mm^3 and the “Tumor inhibitory percent (%) D20” value is listed as 101%. The “Tumor volume (mm^3) (D0)” value in series [2] is recorded as 116.3 ± 3.7 mm^3.
The like results for `CC(=O)O[C@@]12CO[C@@H]1C[C@H](O)[C@@]1(C)C(=O)[C@H](O)C3=C(C)[C@@H](OC(=O)[C@H](OC(=O)[C@@H](CCN(C)C)C(F)(F)F)[C@@H](NC(=O)OC(C)(C)C)c4ccccc4)C[C@@](O)([C@@H](OC(=O)c4ccccc4)[C@H]21)C3(C)C.CS(=O)(=O)O` [Compound C28, 2′-O-[4-N,N-dimethylamino-2(R)-2-trifluoromethylbutyryl]docetaxel methanesulfonate] were, in that order, −13.9%, −46%, 34.5 ± 12.6 mm^3, 105% and 113.5 ± 2.8 mm^3.
Regarding `CC(=O)O[C@@]12CO[C@@H]1C[C@H](O)[C@@]1(C)C(=O)[C@H](O)C3=C(C)[C@@H](OC(=O)[C@H](OC(=O)C(CCN(C)C)C(F)F)[C@@H](NC(=O)OC(C)(C)C)c4ccccc4)C[C@@](O)([C@@H](OC(=O)c4ccccc4)[C@H]21)C3(C)C.Cl` (stereo partly drawn) [Compound C29, 2′-O-[4-N,N-dimethylamino-2(R,S)-2-difluoromethylbutyryl]docetaxel hydrochloride], in series [2], the “Weight change (%) D6” value is −15.1%, the “T/C (%) D20” value was −37%, the “Tumor volume (mm^3) (D20)” value is recorded as 36.8 ± 13.4 mm^3 and the “Tumor inhibitory percent (%) D20” value worked out at 85%. For the same compound, in series [2], the “Tumor volume (mm^3) (D0)” value came to 116.7 ± 3.1 mm^3.
